Assay [1] concerns the target T1, Prostaglandin G/H synthase 1 (Rattus norvegicus, UniProt Q63921).
T1 sequence (Q63921 whole entry): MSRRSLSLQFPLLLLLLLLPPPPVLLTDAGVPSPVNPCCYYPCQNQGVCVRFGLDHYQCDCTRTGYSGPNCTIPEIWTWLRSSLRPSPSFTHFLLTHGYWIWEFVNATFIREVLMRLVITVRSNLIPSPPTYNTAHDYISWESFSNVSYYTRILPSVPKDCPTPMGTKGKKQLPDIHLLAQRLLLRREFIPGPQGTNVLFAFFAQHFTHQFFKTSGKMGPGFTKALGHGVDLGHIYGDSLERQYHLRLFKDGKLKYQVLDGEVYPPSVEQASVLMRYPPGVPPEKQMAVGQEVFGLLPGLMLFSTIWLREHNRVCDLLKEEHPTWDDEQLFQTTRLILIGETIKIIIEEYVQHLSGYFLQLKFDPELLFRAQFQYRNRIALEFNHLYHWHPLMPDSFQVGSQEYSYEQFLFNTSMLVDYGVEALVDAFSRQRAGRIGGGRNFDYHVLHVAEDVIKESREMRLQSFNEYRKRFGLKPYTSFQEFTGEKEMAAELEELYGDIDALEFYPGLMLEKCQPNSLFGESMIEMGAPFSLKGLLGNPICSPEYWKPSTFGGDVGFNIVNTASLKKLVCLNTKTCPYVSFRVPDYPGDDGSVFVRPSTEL
It is filed as functional.

In assay [2] the target is Sodium-dependent noradrenaline transporter (Homo sapiens, UniProt P23975).
Sequence of Sodium-dependent noradrenaline transporter (P23975 whole entry): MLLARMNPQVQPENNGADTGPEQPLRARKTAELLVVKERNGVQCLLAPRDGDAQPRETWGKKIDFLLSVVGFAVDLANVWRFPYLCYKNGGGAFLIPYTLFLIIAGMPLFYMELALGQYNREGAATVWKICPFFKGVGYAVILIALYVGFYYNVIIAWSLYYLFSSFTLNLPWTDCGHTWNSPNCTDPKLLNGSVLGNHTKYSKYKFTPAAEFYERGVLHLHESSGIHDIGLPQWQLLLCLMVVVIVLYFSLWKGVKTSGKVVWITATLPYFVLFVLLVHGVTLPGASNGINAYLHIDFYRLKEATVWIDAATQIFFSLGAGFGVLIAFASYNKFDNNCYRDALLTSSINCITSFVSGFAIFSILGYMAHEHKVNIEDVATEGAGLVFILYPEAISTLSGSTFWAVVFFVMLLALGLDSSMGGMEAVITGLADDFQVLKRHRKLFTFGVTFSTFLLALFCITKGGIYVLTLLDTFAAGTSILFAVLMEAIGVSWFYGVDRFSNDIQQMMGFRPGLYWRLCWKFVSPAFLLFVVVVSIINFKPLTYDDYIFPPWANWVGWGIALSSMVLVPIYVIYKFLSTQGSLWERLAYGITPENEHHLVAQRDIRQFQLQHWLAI
For assay [3], the target named is 5-hydroxytryptamine receptor 2B (Homo sapiens, UniProt P41595). It is filed as functional, cell-based.
Sequence of 5-hydroxytryptamine receptor 2B (P41595 whole entry): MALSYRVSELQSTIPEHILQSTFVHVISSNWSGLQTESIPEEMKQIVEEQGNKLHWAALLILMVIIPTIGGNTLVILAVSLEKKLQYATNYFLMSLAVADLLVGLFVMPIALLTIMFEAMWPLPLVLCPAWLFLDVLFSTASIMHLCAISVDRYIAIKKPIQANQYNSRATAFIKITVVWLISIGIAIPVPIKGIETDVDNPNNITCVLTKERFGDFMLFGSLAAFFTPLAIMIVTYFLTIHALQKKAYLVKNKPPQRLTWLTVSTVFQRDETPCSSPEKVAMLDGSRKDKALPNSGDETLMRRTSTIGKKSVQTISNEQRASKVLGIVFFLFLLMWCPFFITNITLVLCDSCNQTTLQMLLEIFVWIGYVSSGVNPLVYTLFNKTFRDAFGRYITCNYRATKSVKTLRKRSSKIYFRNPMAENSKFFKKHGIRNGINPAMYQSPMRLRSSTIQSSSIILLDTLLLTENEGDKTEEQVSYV
The target of another assay is Histamine H2 receptor (Homo sapiens, UniProt P25021). It is filed as functional, cell-based.
Sequence of Histamine H2 receptor (P25021 whole entry): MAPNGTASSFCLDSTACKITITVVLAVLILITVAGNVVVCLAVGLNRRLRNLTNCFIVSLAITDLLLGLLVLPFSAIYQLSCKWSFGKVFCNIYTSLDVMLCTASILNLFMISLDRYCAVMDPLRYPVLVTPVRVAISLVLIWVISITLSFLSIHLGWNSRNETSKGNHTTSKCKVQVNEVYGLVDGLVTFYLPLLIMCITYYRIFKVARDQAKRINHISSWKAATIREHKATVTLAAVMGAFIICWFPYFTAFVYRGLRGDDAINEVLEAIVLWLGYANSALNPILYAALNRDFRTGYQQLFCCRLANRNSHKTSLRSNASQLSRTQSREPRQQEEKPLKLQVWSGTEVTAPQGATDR
The target of assay [4] is T2, 5-hydroxytryptamine receptor 2C (Homo sapiens, UniProt P28335).
T2 sequence (P28335 whole entry): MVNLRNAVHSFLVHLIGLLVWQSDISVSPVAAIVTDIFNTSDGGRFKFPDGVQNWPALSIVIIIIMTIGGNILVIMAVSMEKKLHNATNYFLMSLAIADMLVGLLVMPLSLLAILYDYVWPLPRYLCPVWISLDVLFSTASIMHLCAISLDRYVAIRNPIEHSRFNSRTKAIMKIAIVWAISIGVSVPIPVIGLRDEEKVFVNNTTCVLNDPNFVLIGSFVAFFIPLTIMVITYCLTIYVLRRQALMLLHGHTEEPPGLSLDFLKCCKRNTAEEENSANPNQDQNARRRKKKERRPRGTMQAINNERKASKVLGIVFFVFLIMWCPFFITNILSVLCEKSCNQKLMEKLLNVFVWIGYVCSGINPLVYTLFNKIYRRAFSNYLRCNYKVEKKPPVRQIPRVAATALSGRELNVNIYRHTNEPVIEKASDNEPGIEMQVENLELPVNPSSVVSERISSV

In assay [5] the target is T3, 5-hydroxytryptamine receptor 1A (Homo sapiens, UniProt P08908).
T3 sequence (P08908 whole entry): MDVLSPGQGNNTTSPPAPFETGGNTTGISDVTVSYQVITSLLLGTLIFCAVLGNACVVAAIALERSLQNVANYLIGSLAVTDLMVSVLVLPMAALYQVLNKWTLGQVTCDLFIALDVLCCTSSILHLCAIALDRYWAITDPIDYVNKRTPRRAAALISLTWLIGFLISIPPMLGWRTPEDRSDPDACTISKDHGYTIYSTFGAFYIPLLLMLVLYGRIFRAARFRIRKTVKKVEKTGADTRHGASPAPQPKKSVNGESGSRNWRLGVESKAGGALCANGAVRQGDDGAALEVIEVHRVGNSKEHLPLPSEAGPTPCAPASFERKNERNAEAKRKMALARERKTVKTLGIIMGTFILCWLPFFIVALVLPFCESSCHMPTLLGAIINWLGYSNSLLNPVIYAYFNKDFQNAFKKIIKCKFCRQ
The class given is functional, cell-based.

Assay [6] deals with Glutamate receptor ionotropic, NMDA 1 (Rattus norvegicus, UniProt P35439).
For assay [7], the target named is T4, Muscarinic acetylcholine receptor M1 (Homo sapiens, UniProt P11229).
T4 sequence (P11229 whole entry): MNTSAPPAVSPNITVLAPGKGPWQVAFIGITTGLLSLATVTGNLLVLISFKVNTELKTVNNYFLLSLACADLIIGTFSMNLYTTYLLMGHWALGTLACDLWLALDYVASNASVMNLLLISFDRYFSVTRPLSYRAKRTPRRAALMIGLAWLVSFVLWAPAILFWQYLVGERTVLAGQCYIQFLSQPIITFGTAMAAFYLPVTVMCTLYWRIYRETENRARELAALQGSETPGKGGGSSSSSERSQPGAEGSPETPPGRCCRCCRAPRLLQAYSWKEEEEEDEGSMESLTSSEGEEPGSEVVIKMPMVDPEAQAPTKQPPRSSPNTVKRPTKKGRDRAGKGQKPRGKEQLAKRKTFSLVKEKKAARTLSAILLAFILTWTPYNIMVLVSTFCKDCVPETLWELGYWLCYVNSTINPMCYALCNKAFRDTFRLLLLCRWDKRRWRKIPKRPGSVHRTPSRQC
The class given is functional.

The target in assay [8] is Beta-1 adrenergic receptor (Homo sapiens, UniProt P08588). The class given is functional.
Sequence of Beta-1 adrenergic receptor (P08588 whole entry): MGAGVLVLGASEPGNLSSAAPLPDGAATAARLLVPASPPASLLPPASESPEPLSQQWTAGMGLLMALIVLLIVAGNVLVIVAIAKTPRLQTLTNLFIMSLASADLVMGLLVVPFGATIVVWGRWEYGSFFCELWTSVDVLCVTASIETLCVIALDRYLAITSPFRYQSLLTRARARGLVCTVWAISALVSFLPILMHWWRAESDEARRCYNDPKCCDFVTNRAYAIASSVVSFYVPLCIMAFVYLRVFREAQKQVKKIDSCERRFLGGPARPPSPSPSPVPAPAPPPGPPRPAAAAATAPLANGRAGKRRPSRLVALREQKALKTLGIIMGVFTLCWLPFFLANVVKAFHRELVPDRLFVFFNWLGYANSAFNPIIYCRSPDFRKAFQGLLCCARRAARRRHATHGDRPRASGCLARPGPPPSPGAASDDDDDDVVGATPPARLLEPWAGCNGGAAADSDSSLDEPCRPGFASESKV

Drawing on ChEMBL document CHEMBL5291721, “A preclinical secondary pharmacology resource illuminates target-adverse drug reaction associations of marketed drugs” (Nat Commun, 2023), this text covers AC50 for 19 compounds.

Bounds are passed on as bounds.

The AC50 is the concentration at which the activity in the assay is half-maximal. Low readings indicate activity at low concentration, high ones activity only at high concentration.
Also: assay procedure not described here.

Consider `COc1ccc(-c2ccc3cc(C(=O)O)ccc3c2)cc1C12CC3CC(CC(C3)C1)C2`, for which the AC50 (in [1]; in [2]; in assay [3]; at Histamine H2 receptor; in assay [4]; in assay [5]) was above 30 µM each time. Moreover, the AC50 in assay [6], in assay [7] and in assay [8] was above 30 µM throughout.

`CNS(=O)(=O)Cc1ccc2[nH]cc(CCN(C)C)c2c1`: the half-maximal activity concentration (AC50) in assay [1] was above 30 µM; in assay [2], above 10 µM; in assay [3] it was above 10 µM; on Histamine H2 receptor, above 30 µM; in [6], above 30 µM; in [8], above 10 µM.

Consider `CC(=O)O[C@H]1CC[C@@]2(C)C(=CC[C@@H]3[C@@H]2CC[C@]2(C)C(c4cccnc4)=CC[C@@H]32)C1` [ABIRATERONE ACETATE], for which the AC50 (in assay [1]; in assay [2]; in assay [3]; on Histamine H2 receptor; in assay [4]; in assay [7]) was above 30 µM throughout. Moreover, the concentration at half-maximal activity (AC50) in assay [8] was above 30 µM.

In the case of `NCC(=O)CCC(=O)O` [AMINOLEVULINIC ACID], the AC50 (in assay [1]; on Histamine H2 receptor; in assay [4]; in [6]; in assay [7]; in [8]) was above 30 µM in each case.

As for `O=C(O)CCCCCCCC(=O)O` [AZELAIC ACID], the half-maximal activity concentration (AC50) was above 10 µM in assay [1]; above 10 µM in [2]; above 10 µM in assay [3]; above 30 µM at Histamine H2 receptor; above 30 µM in assay [4]; above 10 µM in assay [5]. For the same compound, the AC50 in assay [6], in [7] and in assay [8] was above 10 µM throughout.

Turning to `Cn1c(=O)c2c(ncn2CC2OCCO2)n(C)c1=O` [DOXOFYLLINE], the AC50 (in assay [1]; in assay [2]; in assay [3]; at Histamine H2 receptor; in assay [4]; in assay [5]) was above 30 µM throughout. The AC50 in assay [6] and in assay [8] was above 30 µM throughout.

In the case of `CC(C)C(=O)c1c(C(C)C)nn2ccccc12` [IBUDILAST], the half-maximal activity concentration (AC50) (in assay [1]; in assay [2]; in assay [3]; at Histamine H2 receptor; in [4]; in assay [6]) was above 30 µM each time. In addition, the AC50 in assay [7] and in assay [8] was above 30 µM in each case.

`Nc1nc(N)nc(-c2cc(Cl)ccc2Cl)n1` [IRSOGLADINE]: the AC50 in [1] is above 30 µM; in assay [2], above 30 µM; in assay [3], 22 µM; on Histamine H2 receptor, above 30 µM; in assay [8], above 30 µM.

For `CNC(C)CCC=C(C)C` (configuration not stated) [ISOMETHEPTENE], the concentration at half-maximal activity (AC50) in assay [1], in [2] and in assay [8] was above 30 µM each time.

For `CC(Oc1c(Cl)cccc1Cl)C1=NCCN1` (configuration not stated) [LOFEXIDINE], the AC50 (in assay [1]; in assay [2]; in assay [3]; on Histamine H2 receptor; in assay [4]; in assay [6]) was above 30 µM each time. Besides, the concentration at half-maximal activity (AC50) in [7] and in assay [8] was above 30 µM throughout.

`C[C@](N)(Cc1ccc(O)c(O)c1)C(=O)O` [METHYLDOPA]: the AC50 in [1] was above 30 µM; in assay [2], above 10 µM; in assay [3], above 10 µM; at Histamine H2 receptor, above 30 µM; in assay [4], above 30 µM; in [5] it was above 10 µM. For the same compound, the AC50 in assay [6] and in assay [8] was above 10 µM each time.

For the compound `O=C(NCCN1CCOCC1)c1ccc(Cl)cc1` [MOCLOBEMIDE], the concentration at half-maximal activity (AC50) in assay [1] was above 10 µM; in assay [2], above 10 µM; in [3], above 10 µM; on Histamine H2 receptor, above 10 µM; in assay [4], above 30 µM; in assay [5], above 10 µM. Besides, the AC50 in [6] and in [8] was above 10 µM throughout.

`N#Cc1ccc([C@H]2CCc3cncn32)c(F)c1` [OSILODROSTAT]: the concentration at half-maximal activity (AC50) in assay [2], in assay [4], in [6], in [7] and in assay [8] was above 10 µM in each case.

Turning to `O=C(O)/C=C/c1ccc(Cn2ccnc2)cc1` [OZAGREL], the AC50 (in assay [1]; in assay [3]; at Histamine H2 receptor; in [4]; in assay [5]; in assay [6]) was above 30 µM throughout. Besides, the AC50 in [7] and in assay [8] was above 30 µM in each case.

On to `CCCN(CCC)C(=O)C(CCC(=O)O)NC(=O)c1ccccc1` (configuration not stated) [PROGLUMIDE], for which the concentration at half-maximal activity (AC50) in [1] is above 30 µM; in assay [2], above 30 µM; in [3], above 10 µM; on Histamine H2 receptor, above 30 µM; in assay [4], above 30 µM; in assay [5], above 10 µM. The values for the AC50 in assay [6] and in assay [8] were above 10 µM and above 30 µM, respectively.

As for `CCN(CC)C(=O)N[C@H]1C[C@@H]2c3cccc4[nH]cc(c34)C[C@H]2N(C)C1` [TERGURIDE], the AC50 in assay [1] was above 30 µM; in [2], above 30 µM; in [3], 0.58 µM; at Histamine H2 receptor it was 15 µM; in assay [4], 0.21 µM; in [6], above 30 µM. Moreover, the half-maximal activity concentration (AC50) in assay [7] was above 30 µM; in assay [8] it was 3.2 µM.

As to `C/C(O)=C(\C#N)C(=O)Nc1ccc(C(F)(F)F)cc1` [TERIFLUNOMIDE], the concentration at half-maximal activity (AC50) in [1], in [2], in assay [3], in assay [4], in assay [5] and in assay [7] was above 30 µM throughout. Further, the AC50 in assay [8] was above 30 µM.

Regarding `C[C@]12CC[C@H]3[C@@H](CCC4=CC(=O)CC[C@@]43C)[C@@H]1CC[C@@H]2O` [TESTOSTERONE], the AC50 is above 10 µM in assay [1]; above 10 µM in assay [2]; above 10 µM in [3]; above 30 µM at Histamine H2 receptor; above 30 µM in assay [4]; above 10 µM in assay [5]. The AC50 in [6] and in [8] was above 10 µM throughout.

In the case of `O=C(NCCNCC(O)COc1ccc(O)cc1)N1CCOCC1` (configuration not stated) [XAMOTEROL], the AC50 (in [1]; in assay [2]; in [3]; at Histamine H2 receptor; in [4]; in assay [5]) was above 30 µM throughout. Also, the AC50 in [6] and in [7] was above 30 µM in each case.
